Columns and labels:
NK-92 (IL-2 2.5 ng/mL) [1] = experiment: drug sensitivity score (DSS) (DSS units); higher = more sensitive; extreme values may be limits of the assay; details: 72 h
YT (IL-2 2.5 ng/mL) [2] = experiment: as above; details: 72 h
[3] = test system: normal primary NK cells, pool 1 (3 donors), resting (IL-2 0 ng/mL); experiment: as above; details: 72 h
SNK-6 (IL-2 2.5 ng/mL) [4] = experiment: as above; details: 72 h
NK-YS (IL-2 2.5 ng/mL) [5] = experiment: as above; details: 72 h
[6] = test system: normal primary NK cells, pool 1 (3 donors) (IL-2 2.5 ng/mL); experiment: as above; details: 72 h
KAI3 (IL-2 2.5 ng/mL) [7] = experiment: as above; details: 72 h
KHYG-1 (IL-2 2.5 ng/mL) [8] = experiment: as above; details: 72 h
IMC-1 (IL-2 20 ng/mL) [9] = experiment: as above; details: 72 h
[10] = test system: normal primary NK cells, pool 3 (3 donors) (IL-2 2.5 ng/mL); experiment: as above; details: 72 h
[11] = test system: normal primary NK cells, pool 2 (3 donors) (IL-2 2.5 ng/mL); experiment: as above; details: 72 h
DERL-7 (IL-2 2.5 ng/mL) [12] = experiment: as above; details: 72 h
NKL (IL-2 2.5 ng/mL) [13] = experiment: as above; details: 72 h
NK-92 (IL-2 2.5 ng/mL) [14] = experiment: percent inhibition of viability; higher = more inhibition; details: 72 h
YT (IL-2 2.5 ng/mL) [15] = experiment: as above; details: 72 h
[16] = test system: normal primary NK cells, pool 1 (3 donors), resting (IL-2 0 ng/mL); experiment: as above; details: 72 h
SNK-6 (IL-2 2.5 ng/mL) [17] = experiment: as above; details: 72 h
NK-YS (IL-2 2.5 ng/mL) [18] = experiment: as above; details: 72 h
[19] = test system: normal primary NK cells, pool 1 (3 donors) (IL-2 2.5 ng/mL); experiment: as above; details: 72 h
KAI3 (IL-2 2.5 ng/mL) [20] = experiment: as above; details: 72 h
KHYG-1 (IL-2 2.5 ng/mL) [21] = experiment: as above; details: 72 h
IMC-1 (IL-2 20 ng/mL) [22] = experiment: as above; details: 72 h
[23] = test system: normal primary NK cells, pool 3 (3 donors) (IL-2 2.5 ng/mL); experiment: as above; details: 72 h
[24] = test system: normal primary NK cells, pool 2 (3 donors) (IL-2 2.5 ng/mL); experiment: as above; details: 72 h
DERL-7 (IL-2 2.5 ng/mL) [25] = experiment: as above; details: 72 h
NKL (IL-2 2.5 ng/mL) [26] = experiment: as above; details: 72 h
[27] = test system: normal NK cells expanded with K562-aAPC; experiment: as above; details: 72 h, IL-2 2.5 ng/mL
Method: (§1)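 Drug sensitivity and resistance testing on K562-aAPC-expanded normal NK cells: 5 concentrations (10-fold steps over a 10,000-fold range), 72 h at 37 °C, viability by CellTiter-Glo normalised to DMSO and benzethonium chloride controls; DSS from the fitted curve.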

[28] = test system: normal NK cells expanded with K562-aAPC; experiment: drug sensitivity score (DSS) (DSS units); higher = more sensitive; extreme values may be limits of the assay; details: 72 h; IL-2 2.5 ng/mL
Method: as §1

SNK-6 (IL-2 2.5 ng/mL) [29] = experiment: relative IC50 (inflection point of fitted viability curve, relative to fitted max inhibition); higher = less sensitive; details: 72 h
Method: (§2)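 Drug sensitivity and resistance testing: 5 concentrations over a 10,000-fold range, 72 h at 37 °C, viability by CellTiter-Glo normalised to DMSO and benzethonium chloride controls. IC50 is the inflection point of a logistic fit (min fixed at 0, max fitted), so it is relative to the fitted maximal inhibition. Kept only where fitted max inhibition is at least 50%.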

KHYG-1 (IL-2 2.5 ng/mL) [30] = experiment: as above; details: 72 h
Method: as §2

DERL-7 (IL-2 2.5 ng/mL) [31] = experiment: as above; details: 72 h
Method: as §2

NKL (IL-2 2.5 ng/mL) [32] = experiment: as above; details: 72 h
Method: as §2

O=C(O)c1ccc(Nc2ncc3c(n2)-c2ccc(Cl)cc2C(c2c(F)cccc2F)=NC3)cc1 [MLN-8054] (max concentration tested 10000 nM)
Details	drug sensitivity score
DERL-7 (IL-2 2.5 ng/mL) [12]	8.47
IMC-1 (IL-2 20 ng/mL) [9]	7.96
KAI3 (IL-2 2.5 ng/mL) [7]	12.2
KHYG-1 (IL-2 2.5 ng/mL) [8]	14.3
NK-92 (IL-2 2.5 ng/mL) [1]	8.69
NK-YS (IL-2 2.5 ng/mL) [5]	19
NKL (IL-2 2.5 ng/mL) [13]	14
SNK-6 (IL-2 2.5 ng/mL) [4]	21.2
YT (IL-2 2.5 ng/mL) [2]	11.9
[3]	0.03
[6]	0
[10]	0.29
[11]	0.7
[28]	7.83

percent inhibition of viability [%]
Details	1 nM	10 nM	100 nM	1000 nM	10000 nM
DERL-7 (IL-2 2.5 ng/mL) [25]	-1.42	-2.27	-2.98	42.2	63.5
IMC-1 (IL-2 20 ng/mL) [22]	2.52	4.23	18.1	27.9	87.8
KAI3 (IL-2 2.5 ng/mL) [20]	5.5	5.3	20.2	51.7	71.4
KHYG-1 (IL-2 2.5 ng/mL) [21]	4.03	6.1	20	64.1	79
NK-92 (IL-2 2.5 ng/mL) [14]	7.92	3.31	17.5	33.8	65.2
NK-YS (IL-2 2.5 ng/mL) [18]	5.25	3.3	40.5	74	86.5
NKL (IL-2 2.5 ng/mL) [26]	12.4	12.3	30.5	66.5	36.9
SNK-6 (IL-2 2.5 ng/mL) [17]	-1.52	0.61	53.3	78.6	81.5
YT (IL-2 2.5 ng/mL) [15]	4.9	5.88	21	51.3	62
[16]	19.2	-7.07	0.26	-14.7	13.3
[19]	-5.64	-11.5	-5.12	-17.1	3.94
[23]	5.09	2.04	1	3.1	12.9
[24]	1.69	-1.38	2.04	-0.41	21.9
[27]	0.34	1.46	-1.49	39.7	57.7

Cn1cnc2c(F)c(Nc3ccc(Br)cc3Cl)c(C(=O)NOCCO)cc21 [Selumetinib]
Details	relative IC50 [nM]
DERL-7 (IL-2 2.5 ng/mL) [31]	136
KHYG-1 (IL-2 2.5 ng/mL) [30]	606
NKL (IL-2 2.5 ng/mL) [32]	436
SNK-6 (IL-2 2.5 ng/mL) [29]	> 10000

From the supplement of paper PMC5908809
